Data from patent US9884851B2, “Heterocycle-bisamide inhibitors of scavenger receptor BI” (THE BROAD INSTITUTE, INC., priority 2012, dated 2018).
Where “and” joins values, the source holds several entries; their conditions need not be identical. Equal values may be shown once.

Experiments:
murine SR-BI, isoform 1 = target: T1, murine SR-BI, isoform 1 (Mus musculus, UniProt Q61009); assay: DiI-HDL uptake assay (primary assay); assay type: cell-based; conditions: for IC50: ldlA[mSR-BI] cells, 3 hours with compound
T1 construct: expressed in transfected cells; host or cells: ldlA[mSR-BI], Chinese hamster ovary (CHO) cells lacking LDL receptor (Krieger Laboratory)
T1 sequence (Q61009 1-509): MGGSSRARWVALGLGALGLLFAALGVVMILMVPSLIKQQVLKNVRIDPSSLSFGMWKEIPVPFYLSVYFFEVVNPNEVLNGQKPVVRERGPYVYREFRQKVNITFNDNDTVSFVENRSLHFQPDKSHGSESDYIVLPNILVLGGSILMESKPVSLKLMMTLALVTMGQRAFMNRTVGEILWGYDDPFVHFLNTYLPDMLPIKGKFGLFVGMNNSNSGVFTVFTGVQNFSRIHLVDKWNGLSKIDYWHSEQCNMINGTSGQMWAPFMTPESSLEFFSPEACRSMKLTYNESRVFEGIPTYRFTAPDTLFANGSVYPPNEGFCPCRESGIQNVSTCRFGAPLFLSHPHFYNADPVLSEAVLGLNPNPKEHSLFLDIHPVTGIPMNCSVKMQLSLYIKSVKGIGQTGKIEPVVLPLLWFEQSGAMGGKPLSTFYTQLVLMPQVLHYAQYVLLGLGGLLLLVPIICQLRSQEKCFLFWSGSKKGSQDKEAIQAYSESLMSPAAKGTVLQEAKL
Method: The following cell lines were used in this study: • ldlA[mSR-BI] is a Chinese hamster ovary (CHO) cell line that overexpresses murine SR-BI, isoform 1 (NP_058021) and was obtained from the (Krieger Laboratory). This cell line was used for the primary assay and several secondary assays. […] Assays DiI-HDL Uptake Assay (Primary Assay AID Nos. 488896, 493194, 540354 588392, 588553, 588548, 588754, 588828, 588833)
ldlA[mSR-BI] cells were plated into 384-well plates at 30 μl per well and incubated overnight. As a measurable surrogate for cholesterol uptake, human HDL particles were treated with the lipophilic fluorescent dye DiI and exposed to ldlA[mSR-BI] cells in lipoprotein-free media (Ham's F12/0.5% fatty acid-free Bovine Serum Albumin (BSA)/25 mM HEPES pH 7.4 plus 10 μg protein/ml DiI-HDL). Cells took up the DiI via SR-BI over 3 hours in the presence of compound. After significant uptake of the DiI, the cells became fluorescent. The level of fluorescence correlates with the amount of DiI uptake and can be measured with a standard plate reader (here a PerkinElmer EnVision plate reader was used). The uptake of lipid (represented by DiI) was inhibited by the positive control compound BLT-1 or with an excess of HDL untreated with DiI. Primary HTS data were analyzed in Genedata Screener Assay Analyzer, and were normalized against DMSO and the positive control (1 μM BLT-1). For the HTS, the average of two replicates was used to rank order activity and to choose compounds for retests. For dose studies, percent (%) activity was determined for each concentration and the concentration response curves (CRCs) were generated with Genedata Condeseo.
To identify novel inhibitors, SR-BI-mediated lipid uptake was measured in an engineered cell line that minimized potential uptake by other mechanisms, including via the LDL receptor (1). ldlA[mSR-BI] cells overexpress murine isoform 1 and selectively take up HDL lipid at similar levels as “has been reported for cultured mouse adrenal cells, perfused organs, and liver, adrenal gland and ovary in vivo” (1). This primary cell-based assay was used in a pilot screen that identified BLTs 1 through 5. The assay was slightly modified from the original protocol of Nieland et al. to increase throughput and to ease automation procedures.
Briefly, the plate reader was switched to a Perkin-Elmer EnVision, several washing steps were eliminated, and the cell number per well was reduced without impacting the robustness of the assay. The automated assay was first tested with a validation set of 2,240 compounds. These compounds were tested in duplicate with in-plate neutral (DMSO) and positive (1 μM BLT-1) controls. Robustness, reproducibility, and variability parameters were analyzed before initiating the full HTS. The HTS was run over the course of several weeks. Data were normalized relative to controls, and plate patterns were corrected using a multiplicative algorithm in Genedata Screener Assay Analyzer. For each compound, the average of the two replicates was determined and used for subsequent analysis.

[1] = Cell cytotoxicity assay (CellTiter-Glo); conditions: Chinese hamster, ldlA[mSR-BI] cells
Method: It is possible that a compound will cause cells to decrease HDL-mediated DiI uptake due to nonspecific consequences of cellular toxicity, representing a second class of false positive hits. The cells were treated with compounds for 3 hours or 24 hours, and then cell viability was measured using the CellTiter-Glo Assay (Promega), a luciferase-based reagent that measures cellular ATP levels. The compounds were tested at different concentrations to determine IC50 values. […] Data were normalized against DMSO and the positive control (1 μM BLT-1) in Genedata Assay Analyzer.
All available dry powder samples of the remaining, non-quenching compounds were procured from commercial sources and purities were determined. The compounds obtained were then retested in the primary assay and in cytotoxicity assays. We wanted to rule out any compounds that were cytotoxic, especially in the 3-hour time span of the primary DiI-HDL uptake assay. Therefore, compounds were tested in ldl[mSR-BI] cells for cytotoxicity at 3 hours and 24 hours using the CellTiter-Glo assay (Promega) that measures cellular ATP as a marker of cell viability. […] Compounds were screened for inhibition of endocytosis using labeled transferrin, which is known to bind the transferrin receptor, enter cells by clathrin-mediated endocytosis, and move to endosomes before being recycled to the cell surface.

SR-BI = target: T2, SR-BI (Mus musculus, UniProt Q61009); assay: HDL binding assay (Alexa 488 HDL); assay type: cell-based, murine; design: expressed in transfected cells; host or cells: ldlA[mSR-BI], Chinese hamster ovary (CHO) cells lacking LDL receptor (Krieger Laboratory)
T2 sequence (Q61009 1-509): T1 sequence (Q61009 1-509)
Method: HDL binding was assessed using Alexa Fluor 488-labeled HDL particles. For this assay, the Alexa 488 dye was directly covalently bound to apolipoprotein components of the HDL particle via primary amines; thus, no transfer of the fluorophore to cell membranes occurs. Instead, direct binding of the HDL particles to SR-BI can be measured. As a positive control, BLT-1, which is known to increase binding, was used at 1 μM. It is possible that a compound can reduce binding of HDL to the receptor, and this would lead to a decrease in signal. This assay is used to characterize the mechanism of action of a particular compound; therefore, any outcome in the assay is acceptable. Data were normalized against DMSO and the positive control (1 μM BLT-1) in Genedata Assay Analyzer.

SMILES	reduction in signal in primary HTS (murine SR-BI, isoform 1; 1 μM, positive control) [fold]	IC50 (murine SR-BI, isoform 1)	EC50 at 24 h [1] [nM]	IC50 at 24 h [1] [nM]	AC50 (SR-BI; Alexa Fluor 488-labeled HDL) [nM]	effect on binding of HDL to SR-BI (in words) (SR-BI; Alexa-488 labeled HDL)	selectivity (murine SR-BI, isoform 1)	higher potency than ITX-5061 (murine SR-BI, isoform 1; AID No. 588828)
CCCCCCC1CCCC1=NNC(N)=S (stereo not drawn) [BLT-1, reference compound]	> 2.2	10.8 nM	–	–	–	–	–	–
C[C@H](C(=O)NC1CCCC1)N(C(=O)Cn1nnc(-c2ccc3c(c2)OCO3)n1)C1CCCCC1 [ML279, (R)-2-(2-(5-(Benzo[d][1,3]dioxol-5-yl)-2H-tetrazol-2-yl)-N-cyclohexylacetamido)-N-cyclopentylpropanamide]	–	16 nM and 16.2 nM	> 35000	> 35000	270	increases binding of HDL to the receptor	greater than 1000	approximately 15 fold
